Laboratory results taken from patent US20250205184A1, “COLD COMPRESS SPRAY FOR RELIEVING GOUT AND PREPARATION METHOD THEREOF” (priority 2023, published 2025).

Test system: ankle joint swelling of rats caused by sodium urate crystals
Assay: Acute plantar/ankle joint swelling of rat caused by sodium urate crystals
Assay type: in vivo
Details: X ± SD, n = 9
Method: A process of preparing sodium urate crystallization and a sodium urate solution is as follows: 2 g of uric acid are added into 400 mL of boiling water to obtain an uric acid solution; a pH value of the uric acid solution is adjusted to 7.4 by using NaOH (1N) to obtain an adjusted solution; the adjusted solution is heated to a temperature of 95° C. to obtain a heated solution; then the heated solution is cooled and stirred gently at a room temperature to obtain a cooled solution; the cooled solution is allowed to stand for 4-6 hours at 4° C. to precipitate flocculent precipitates; microcrystalline sodium urate is obtained by filtering, and the microcrystalline sodium urate is sterilized at a high temperature of 80° C. 1000 milligrams (mg) of the sodium urate are ground fully to obtain sodium urate powder, and the sodium urate powder is added into 20 mL of sterile physiological saline to prepare a suspension with a concentration of 50 g/L (5%).
A process of grouping and administration is as follows: rats are adaptively fed for 3 days and randomly divided into 7 groups based on body weights. The 7 groups include a model control group, a positive drug indomethacin group, a first group, a second group, and a third group, a first comparison group, and a second comparison group. One hour before inflammation, the positive drug indomethacin group is administered with indomethacin through gavage (10 mL/kg). The first group is immediately administered with the cold compress spray (0.1 mL for each rat) obtained in the embodiment 1 after modeling; the second group is immediately administered with the cold compress spray (0.1 mL for each rat) obtained in the embodiment 2 after modeling; the third group is immediately administered with the cold compress spray (0.1 mL for each rat) obtained in the embodiment 3 after modeling; the first comparison group is immediately administered with the cold compress spray (0.1 mL for each rat) obtained in the comparative embodiment 1 after modeling; the second comparison group is immediately administered with the cold compress spray (0.1 mL for each rat) obtained in the comparative embodiment 2 after modeling; and the model control group is immediately administered with an excipient (0.1 mL for each rat) after modeling. Furthermore, after inflammation, the first group, the second group, the third group, the first comparison group, and the second comparison group are administered with corresponding cold compress sprays again after measurements of joint swelling at 6, 12, and 24 hours.
A process of modeling is as follows: an area around an ankle joint of a right hind limb of each rat is marked with a marker pen, and a joint circumference is measured as a normal value using a plantar volume meter. 0.2 mL of 5% sodium urate suspension are injected (the joint of each rat is extended and a needle is inserted at 45 degrees) into a joint cavity on a dorsal side of the right ankle joint of each rat of each group. Here, the modeling of each group is completed.
Results of joint swelling are as follows: a volume of the right ankle joint of each rat at 6, 12, 24, and 48 hours after inflammation is measured.

With `COc1ccc2c(c1)c(CC(=O)O)c(C)n2C(=O)c1ccc(Cl)cc1` [Indomethacin, indomethacin] the “Volume of after modeling, 6 h” value (right ankle joint volume 6 h after inflammation) was 2.42 ± 0.15 mL, the “Volume of after modeling, 12 h” value (right ankle joint volume 12 h after inflammation) was 2.29 ± 0.30 mL and the “Volume of after modeling, 24 h” value (right ankle joint volume 24 h after inflammation) was 2.18 ± 0.09 mL. The “Volume of after modeling, 48 h” value (right ankle joint volume 48 h after inflammation) was 2.16 ± 0.14 mL and the Volume before modeling (right ankle joint volume, baseline before sodium urate injection) was 2.12 ± 0.21 mL.
